In patent US20240317780A1, “RADIOPHARMACEUTICAL SOMATOSTATIN RECEPTOR LIGANDS AND PRECURSORS THEREOF” (Technische Universität München, priority 2021, published 2024):

system: not listed separately; experiment: Octanol-water distribution coefficient (logD pH 7.4) of the labeled tracer; format: physicochemical; conditions: n-octanol/PBS pH 7.4, room temperature
Experimental: Approximately 1 MBq of the labeled tracer was dissolved in 1 mL of a 1:1 mixture (by volumes) of phosphate buffered saline (PBS, pH 7.4) and n-octanol in an Eppendorf tube. After vigorous mixing of the suspension for 3 minutes at room temperature, the vial was centrifuged at 15000 g for 5 minutes (Biofuge 15, Heraus Sepatech, Osterode, Germany) and 100 μL aliquots of both layers were measured in a gamma counter. The experiment was repeated at least six times.

First: C[C@@H](O)[C@H](NC(=O)C1CSSCC(NC(=O)C(Cc2ccccc2)NC(=O)COCCOCCNC(=O)C(CC(=O)O)NC(=O)[C@@H](CC(=O)O)NC(=O)C(CNC(=O)c2ccc([Si](F)(C(C)(C)C)C(C)(C)C)cc2)NC(=O)CCC(C(=O)O)N2CCN(CC(=O)O)CCN(CC(=O)O)CCN(CC(=O)O)CC2)C(=O)N[C@@H](Cc2ccc(O)cc2)C(=O)NC(Cc2c[nH]c3ccccc23)C(=O)N[C@@H](CCCCN)C(=O)N[C@@H]([C@@H](C)O)C(=O)N1)C(=O)O (stereo partly drawn) (natGa complex, metal not drawn) [[Ga]1]
Second: C[C@@H](O)[C@H](NC(=O)C1CSSCC(NC(=O)C(Cc2ccccc2)NC(=O)COCCOCCNC(=O)C(CC(=O)O)NC(=O)[C@@H](CC(=O)O)NC(=O)C(CNC(=O)CCC(C(=O)O)N2CCN(CC(=O)O)CCN(CC(=O)O)CCN(CC(=O)O)CC2)NC(=O)c2ccc([Si](F)(C(C)(C)C)C(C)(C)C)cc2)C(=O)N[C@@H](Cc2ccc(O)cc2)C(=O)NC(Cc2c[nH]c3ccccc23)C(=O)N[C@@H](CCCCN)C(=O)N[C@@H]([C@@H](C)O)C(=O)N1)C(=O)O (stereo partly drawn) (natGa complex, metal not drawn) [[Ga]2]
The “LogDpH=7.4” value of the first is higher: −2.02 ± 0.04 for the first, −2.3 ± 0.09 for the second.

Going from `C[C@@H](O)[C@H](NC(=O)C1CSSCC(NC(=O)C(Cc2ccccc2)NC(=O)COCCOCCNC(=O)C(CC(=O)O)NC(=O)[C@@H](CC(=O)O)NC(=O)C(CNC(=O)c2ccc([Si](F)(C(C)(C)C)C(C)(C)C)cc2)NC(=O)CN2CCN(CC(=O)O)CCN(CC(=O)O)CCN(CC(=O)O)CC2)C(=O)N[C@@H](Cc2ccc(O)cc2)C(=O)NC(Cc2c[nH]c3ccccc23)C(=O)N[C@@H](CCCCN)C(=O)N[C@@H]([C@@H](C)O)C(=O)N1)C(=O)O` (stereo partly drawn) (natGa complex, metal not drawn) [[Ga]3] to `C[C@@H](O)[C@H](NC(=O)C1CSSCC(NC(=O)C(Cc2ccccc2)NC(=O)COCCOCCNC(=O)C(CC(=O)O)NC(=O)[C@@H](CC(=O)O)NC(=O)C(CNC(=O)CN2CCN(CC(=O)O)CCN(CC(=O)O)CCN(CC(=O)O)CC2)NC(=O)c2ccc([Si](F)(C(C)(C)C)C(C)(C)C)cc2)C(=O)N[C@@H](Cc2ccc(O)cc2)C(=O)NC(Cc2c[nH]c3ccccc23)C(=O)N[C@@H](CCCCN)C(=O)N[C@@H]([C@@H](C)O)C(=O)N1)C(=O)O` (stereo partly drawn) (natGa complex, metal not drawn) [[Ga]4], the “LogDpH=7.4” value falls from −1.87 ± 0.07 to −2.15 ± 0.11.

`C[C@@H](O)[C@H](NC(=O)C1CSSCC(NC(=O)C(Cc2ccccc2)NC(=O)CNC(=O)CNC(=O)[C@@H](CC(=O)O)NC(=O)C(CC(=O)O)NC(=O)[C@@H](CNC(=O)CN2CCN(CC(=O)O)CCN(CC(=O)O)CCN(CC(=O)O)CC2)NC(=O)C(CN)NC(=O)c2ccc([Si](F)(C(C)(C)C)C(C)(C)C)cc2)C(=O)N[C@@H](Cc2ccc(O)cc2)C(=O)NC(Cc2c[nH]c3ccccc23)C(=O)N[C@@H](CCCCN)C(=O)N[C@@H]([C@@H](C)O)C(=O)N1)C(=O)O` (stereo partly drawn) [[Lu]19] and `C[C@@H](O)[C@H](NC(=O)C1CSSCC(NC(=O)C(Cc2ccccc2)NC(=O)CNC(=O)CNC(=O)[C@@H](CC(=O)O)NC(=O)C(CC(=O)O)NC(=O)[C@@H](CNC(=O)CN2CCN(CC(=O)O)CCN(CC(=O)O)CCN(CC(=O)O)CC2)NC(=O)C[N+](C)(C)Cc2ccc([Si](F)(C(C)(C)C)C(C)(C)C)cc2)C(=O)N[C@@H](Cc2ccc(O)cc2)C(=O)NC(Cc2c[nH]c3ccccc23)C(=O)N[C@@H](CCCCN)C(=O)N[C@@H]([C@@H](C)O)C(=O)N1)C(=O)O` (stereo partly drawn) [[Lu]24] are within 0.2 log units of each other in “LogDpH=7.4” value: −1.85 ± 0.02 for the first, −1.90 ± 0.05 for the second.

Compared with `C[C@@H](O)[C@H](NC(=O)C1CSSCC(NC(=O)C(Cc2ccccc2)NC(=O)CNC(=O)CNC(=O)CNC(=O)C(CC(=O)O)NC(=O)[C@@H](CC(=O)O)NC(=O)C(CNC(=O)C[N+](C)(C)Cc2ccc([Si](F)(C(C)(C)C)C(C)(C)C)cc2)NC(=O)CN2CCN(CC(=O)O)CCN(CC(=O)O)CCN(CC(=O)O)CC2)C(=O)N[C@@H](Cc2ccc(O)cc2)C(=O)NC(Cc2c[nH]c3ccccc23)C(=O)N[C@@H](CCCCN)C(=O)N[C@@H]([C@@H](C)O)C(=O)N1)C(=O)O` (stereo partly drawn) [[Lu]44], `C[C@@H](O)[C@H](NC(=O)C1CSSCC(NC(=O)C(Cc2ccccc2)NC(=O)CNC(=O)CNC(=O)CNC(=O)C(CC(=O)O)NC(=O)[C@@H](CC(=O)O)NC(=O)C(CCC(=O)O)NC(=O)[C@@H](CNC(=O)C[N+](C)(C)Cc2ccc([Si](F)(C(C)(C)C)C(C)(C)C)cc2)NC(=O)CN2CCN(CC(=O)O)CCN(CC(=O)O)CCN(CC(=O)O)CC2)C(=O)N[C@@H](Cc2ccc(O)cc2)C(=O)NC(Cc2c[nH]c3ccccc23)C(=O)N[C@@H](CCCCN)C(=O)N[C@@H]([C@@H](C)O)C(=O)N1)C(=O)O` (stereo partly drawn) [[Lu]47] is lower in “LogDpH=7.4” value: −1.98 ± 0.05 for the first, −2.29 ± 0.03 for the second.

`C[C@@H](O)[C@H](NC(=O)C1CSSCC(NC(=O)C(Cc2ccccc2)NC(=O)CNC(=O)CNC(=O)CNC(=O)C(CC(=O)O)NC(=O)[C@@H](CC(=O)O)NC(=O)C(CCCCN)NC(=O)[C@@H](CNC(=O)C[N+](C)(C)Cc2ccc([Si](F)(C(C)(C)C)C(C)(C)C)cc2)NC(=O)CN2CCN(CC(=O)O)CCN(CC(=O)O)CCN(CC(=O)O)CC2)C(=O)N[C@@H](Cc2ccc(O)cc2)C(=O)NC(Cc2c[nH]c3ccccc23)C(=O)N[C@@H](CCCCN)C(=O)N[C@@H]([C@@H](C)O)C(=O)N1)C(=O)O` (stereo partly drawn) [[Lu]45] and `C[C@@H](O)[C@H](NC(=O)C1CSSCC(NC(=O)C(Cc2ccccc2)NC(=O)CNC(=O)CNC(=O)CNC(=O)C(CC(=O)O)NC(=O)[C@@H](CC(=O)O)NC(=O)C(CCCNC(N)=O)NC(=O)[C@@H](CNC(=O)C[N+](C)(C)Cc2ccc([Si](F)(C(C)(C)C)C(C)(C)C)cc2)NC(=O)CN2CCN(CC(=O)O)CCN(CC(=O)O)CCN(CC(=O)O)CC2)C(=O)N[C@@H](Cc2ccc(O)cc2)C(=O)NC(Cc2c[nH]c3ccccc23)C(=O)N[C@@H](CCCCN)C(=O)N[C@@H]([C@@H](C)O)C(=O)N1)C(=O)O` (stereo partly drawn) [[Lu]46] are within 0.2 log units of each other in “LogDpH=7.4” value: −2.10 ± 0.08 for the first, −2.12 ± 0.05 for the second.

`C[C@@H](O)[C@H](NC(=O)C1CSSCC(NC(=O)C(Cc2ccccc2)NC(=O)[C@@H](CC(N)=O)NC(=O)C(CC(N)=O)NC(=O)[C@@H](CC(=O)O)NC(=O)C(CC(=O)O)NC(=O)[C@@H](CNC(=O)CN2CCN(CC(=O)O)CCN(CC(=O)O)CCN(CC(=O)O)CC2)NC(=O)C[N+](C)(C)Cc2ccc([Si](F)(C(C)(C)C)C(C)(C)C)cc2)C(=O)N[C@@H](Cc2ccc(O)cc2)C(=O)NC(Cc2c[nH]c3ccccc23)C(=O)N[C@@H](CCCCN)C(=O)N[C@@H]([C@@H](C)O)C(=O)N1)C(=O)O` (stereo partly drawn) [[Lu]48] and `C[C@@H](O)[C@H](NC(=O)C1CSSCC(NC(=O)C(Cc2ccccc2)NC(=O)[C@@H](CC(N)=O)NC(=O)C(CC(N)=O)NC(=O)CNC(=O)C(CC(=O)O)NC(=O)[C@@H](CC(=O)O)NC(=O)C(CNC(=O)CN2CCN(CC(=O)O)CCN(CC(=O)O)CCN(CC(=O)O)CC2)NC(=O)C[N+](C)(C)Cc2ccc([Si](F)(C(C)(C)C)C(C)(C)C)cc2)C(=O)N[C@@H](Cc2ccc(O)cc2)C(=O)NC(Cc2c[nH]c3ccccc23)C(=O)N[C@@H](CCCCN)C(=O)N[C@@H]([C@@H](C)O)C(=O)N1)C(=O)O` (stereo partly drawn) [[Lu]49] are within 0.2 log units of each other in “LogDpH=7.4” value: −2.19 ± 0.05 for the first, −2.24 ± 0.06 for the second.

biological target: T1, SST2 (Homo sapiens, UniProt P30874); experiment: Determination of IC50: competitive binding against [125I]TOC on SST2-transfected CHO cells; conditions: [125I]TOC reference radioligand, 60 min room temperature
T1 construct: expressed in transfected cells; host or cells: CHO (Chinese hamster ovary) cells
Experimental: The SST2-transfected CHO cells were cultivated in Dulbecco's Modified Eagle Medium/Nutrient Mixture F-12 (DMEM/F-12) with Glutamax-I (1:1) (Gibco), supplemented with 10% fetal calf serum (FCS) and maintained at 37° C. in a humidified 5% CO2 atmosphere. […] After removal of the culture medium, the cells were treated once with 300 μL of HBSS-B (Hank's balanced salt solution, Biochrom, Berlin, Germany, with addition of 1% bovine serum albumin (BSA)) and left with 200 μL HBSS-B. Next, 25 μL per well of solutions, containing either HBSS-B (control) or the respective ligand in increasing concentration (10^−10-10^−4 M in HBSS-B, were added with subsequent addition of 25 μL of
[^125I]TOC ([^125I]Tyr^3-Octreotide) (1.0 nM) in HBSS-B. Each concentration is investigated in triplicate. After 60 min incubation at room temperature, the experiment was terminated by removal of the assay medium and consecutive rinsing with 300 μL of cold PBS. The media of both steps were combined in one fraction and represent the amount of unbound radioligand.
Afterwards, the cells were lysed with 300 μL of 1 M NaOH and united with the 300 μL 1 M NaOH of the following wash step. Quantification of bound and unbound radioligand was accomplished in a γ-counter.

T1 sequence (P30874 whole entry, species assumed): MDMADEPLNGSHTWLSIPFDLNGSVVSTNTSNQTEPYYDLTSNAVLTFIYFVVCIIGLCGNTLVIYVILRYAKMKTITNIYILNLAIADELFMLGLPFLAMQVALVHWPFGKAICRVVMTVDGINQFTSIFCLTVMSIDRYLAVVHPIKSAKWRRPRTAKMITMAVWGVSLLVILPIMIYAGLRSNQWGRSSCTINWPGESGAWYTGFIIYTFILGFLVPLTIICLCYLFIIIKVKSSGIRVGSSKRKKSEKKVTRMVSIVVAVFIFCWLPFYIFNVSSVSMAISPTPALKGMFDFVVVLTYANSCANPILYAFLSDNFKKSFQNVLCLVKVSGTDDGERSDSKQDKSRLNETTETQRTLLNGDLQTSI

Compared with `C[C@@H](O)[C@H](NC(=O)C1CSSCC(NC(=O)C(Cc2ccccc2)NC(=O)CNC(=O)CNC(=O)[C@@H](CC(=O)O)NC(=O)C(CC(=O)O)NC(=O)[C@@H](CNC(=O)CC[C@H](C(=O)O)N2CCN(CC(=O)O)CCN(CC(=O)O)CCN(CC(=O)O)CC2)NC(=O)C(CN)NC(=O)c2ccc([Si](F)(C(C)(C)C)C(C)(C)C)cc2)C(=O)N[C@@H](Cc2ccc(O)cc2)C(=O)NC(Cc2c[nH]c3ccccc23)C(=O)N[C@@H](CCCCN)C(=O)N[C@@H]([C@@H](C)O)C(=O)N1)C(=O)O` (stereo partly drawn) (natGa complex, metal not drawn) [[Ga]20], `C[C@@H](O)[C@H](NC(=O)C1CSSCC(NC(=O)C(Cc2ccccc2)NC(=O)CNC(=O)CNC(=O)CNC(=O)C(CC(=O)O)NC(=O)[C@@H](CC(=O)O)NC(=O)C(CCC(=O)O)NC(=O)[C@@H](CNC(=O)C[N+](C)(C)Cc2ccc([Si](F)(C(C)(C)C)C(C)(C)C)cc2)NC(=O)CN2CCN(CC(=O)O)CCN(CC(=O)O)CCN(CC(=O)O)CC2)C(=O)N[C@@H](Cc2ccc(O)cc2)C(=O)NC(Cc2c[nH]c3ccccc23)C(=O)N[C@@H](CCCCN)C(=O)N[C@@H]([C@@H](C)O)C(=O)N1)C(=O)O` (stereo partly drawn) (natGa complex, metal not drawn) [[Ga]47] is 1.7-fold lower in IC50: 12.7 ± 1 nM for the first, 7.58 ± 0.58 nM for the second.

Molecule `C[C@@H](O)[C@H](NC(=O)C1CSSCC(NC(=O)C(Cc2ccccc2)NC(=O)CNC(=O)CNC(=O)CNC(=O)C(CC(=O)O)NC(=O)[C@@H](CC(=O)O)NC(=O)C(CNC(=O)C[N+](C)(C)Cc2ccc([Si](F)(C(C)(C)C)C(C)(C)C)cc2)NC(=O)CN2CCN(CC(=O)O)CCN(CC(=O)O)CCN(CC(=O)O)CC2)C(=O)N[C@@H](Cc2ccc(O)cc2)C(=O)NC(Cc2c[nH]c3ccccc23)C(=O)N[C@@H](CCCCN)C(=O)N[C@@H]([C@@H](C)O)C(=O)N1)C(=O)O` (stereo partly drawn) (natGa complex, metal not drawn) [[Ga]44] has an IC50 of 5.45 ± 0.5 nM.
